Source: patent US4183930A, “Amino derivatives of pyrazolo [1,5-a]s-triazine, and their therapeutic applications” (Aron S.A., priority 1978, dated 1980)
Like-named read-outs stand apart in the source and are kept apart here.

What was measured:
[1] = test system: isolated trachea of guinea-pigs; assay: Dilatation of the isolated trachea of guinea-pigs (Castillo & De Beer); parameters: species or system guinea-pig; details: 10 γ/ml, tensile load 500 mg; for % dilatation (tensile variation with respect to the activity of theophylline taken as 100%): relative to theophylline = 100%
Method: (a) Action on the isolated trachea of guinea-pigs The trachea is prepared according to the technique disclosed by Castillo & De Beer (J. Pharmacol. Exper. […] The organ is submitted to a tensile load of 500 mg.

[2] = test system: anaphylactic shock in mice; assay: Protective effect against anaphylactic shock in mice; format: in vivo, mouse; details: 100 mg/kg i.p., 30 min prior to albumin; for Number of dead animals: dead/total; for responders at 100 mg/kg: Mus musculus, ip, 0.5 h, read-out: % surviving animals
Method: (a) Protective effect against anaphylactic shock in mice
The protective effect against anaphylactic shock was investigated according to the technique disclosed by Duhault and co-workers (Arzneim. Forschung, 1972, II, 1947). Four weeks after sensitization to bovine albumin, intravenous injection of 0.3 mg bovine albumin in mice causes a fatal anaphylactic shock within the 30 minutes which follow said injection.
The protective effect of compounds of the formula (I), on intraperitoneal administration, at a dosage of 100 mg/kg 30 minutes prior to albumin injection is illustrated in Table III.

[3] = test system: passive cutaneous anaphylaxis in rats; assay: Protective effect against passive cutaneous anaphylaxis (PCA) in rats; format: in vivo; details: Rattus norvegicus, ip, 100 mg/kg i.p., 30 min prior to ovalbumin injection, read-out: % Protection (with respect to the controls)
Method: (b) Protective effect against passive cutaneous anaphylaxis in rats
The protective effect against passive cutaneous anaphylaxis (PCA) in rats were investigated according to the technique disclosed by Rosenthale and co-workers (J. Pharm. Exp. Therap. 1976, 197, 725-733). Antisera were prepared by sub-cutaneous injection of 1 mg/ml ovalbumin and by intraperitoneal injection of b 30×10^9 /ml Bacillus pertussis. The PCA reaction was visualized on intravenous injection of antigen (ovalbumin) and Evans Blue in rats which had been intradermally administered the antiserum (4 injections in the shaved back of each rat) 72 hours previously. The protective effect obtained on intraperitoneal administration of the compounds at a dosage of 100 mg/kg 30 minutes prior to ovalbumin injection is set forth in Table IV.
To determine the percent protection, the length of the longest diameter o
the spot and the length of the diameter perpendicular thereto are
measured. The product is expressed as mm^2.

[4] = test system: rats; assay: Chronic toxicity in rats, orally, 3 months; format: in vivo, rat; details: 3 months, 25, 100 and 300 mg/kg
[5] = test system: humans; assay: First clinical tests in humans; format: in vivo, human
Excerpt: The first clinical tests provided the following data:
(2) In clinical pharmacology, functional respiratory exploration determinations provided the same bronchodilator effect found in animals.

[6] = test system: mice; details: mouse, in vivo
[7] = in vivo; details: mouse
[8] = test system: bronchospasm induced by acetylcholine, serotonine and histamine; assay: Prevention of bronchospasm in anesthetized guinea-pigs (Konzett and Rossler); format: in vivo, guinea-pig; details: Cavia porcellus, iv, spasm by acetylcholine (10-20 γ/kg i.v.), serotonine (5 γ/kg i.v.) and histamine (10 γ/kg i.v.), read-out: ED100 (dosage providing 100% inhibition of the spasm)
[9] = test system: mice; assay: Acute toxicity in mice; details: dosage 1000 mg/kg
[10] = test system: dogs; assay: Chronic toxicity in dogs, 1 month; format: in vivo, dog; details: 20 and 160 mg/kg
[11] = Series 3 (controls 25% surviving)
[12] = Series 4 (controls 30% surviving)
[13] = Series 2 (controls 50% surviving)

SMILES	Tensile variation [1]	% dilatation (tensile variation with respect to the activity of theophylline taken as 100%) [1]	inhibition in vivo at 100 mg/kg [3]	ED100 [8]	LD50 ([7]; po)	other results
CNc1nc(N)nc2cc(C)nn12 [Example 4, 2-Amino-4-methylamino-7-methyl-pyrazolo[1,5-a]s.triazine]	-153 mg	170%	92%	–	–	Number of dead animals ([2]; Series 3 (controls 15/20)): 9/20; responders at 100 mg/kg [2, 11]: 55%; alteration of the biological constants / histological injury of the various organs [4]: neither alteration of the biological constants nor histological injury of the various organs; tolerance in humans [5]: good tolerance; LD50 p.o. ([6]; po): 1000 mg/kg; LD50 ([7]; iv): 300 mg/kg
Nc1nc(N)n2nccc2n1 [Example 1, 2,4-Diamino-pyrazolo[1,5-a]s.triazine]	-60 mg	67%	42%	20 to 25 mg/kg	1250 mg/kg	responders at 100 mg/kg ([2]; Series 1 (controls 20% surviving)): 50%; Number of dead animals ([2]; mice sensitized to bovine albumin, Series 1 (controls 16/20)): 10/20; alteration of the biological constants / histological injury of the various organs [4]: neither alteration of the biological constants nor histological injury of the various organs; tolerance in humans [5]: good tolerance; Number of dead animals at the dosage indicated, i.v. [6]: no
CNc1nc(NC)n2nc(C)cc2n1 [Example 5, 2,4-Bis-(methylamino)-7-methyl-pyrazolo[1,5-a]s.triazine]	-207 mg	230%	83%	10 mg/kg	300 mg/kg	–
Cc1cc2nc(N)nc(NC(C)(C)C)n2n1 [Example 10]	–	–	50%	–	–	Number of dead animals at the dosage indicated, p.o. [9]: one
CCCNc1nc(N)nc2cc(C)nn12 [Example 9]	–	–	69%	–	–	Number of dead animals at the dosage indicated, p.o. [9]: one
Cc1cc2nc(N)nc(NCC3CCCO3)n2n1 (centres unmarked) [Example 8, 2-Amino-4-tetrahydrofurfurylamino-7-methyl-pyrazolo[1,5-a]s.triazine]	-72 mg	80%	54%	–	–	Number of dead animals ([2]; Series 4 (controls 14/20)): 6/21; responders at 100 mg/kg [2, 12]: 71%; Number of dead animals at the dosage indicated, p.o. [6]: two
Cn1c(=O)c2[nH]cnc2n(C)c1=O [Theophylline, reference compound]	-90 mg	–	72%	20 to 25 mg/kg	–	Number of dead animals ([2]; Series 2 (controls 10/20)): 4/20; responders at 100 mg/kg [2, 13]: 80%
CCc1nn2c(N)nc(N)nc2c1C [Example 3, 2,4-Diamino-7-ethyl-8-methyl-pyrazolo[1,5-a]s.triazine]	-100 mg	111%	92%	–	200 mg/kg	Number of dead animals ([2]; Series 3 (controls 15/20)): 6/19; responders at 100 mg/kg [2, 11]: 68.5%
C=CCNc1nc(N)nc2ccnn12 [Example 11]	–	–	–	–	–	Number of dead animals at the dosage indicated, p.o. [9]: one
C=CCNc1nc(N)nc2cc(C)nn12 [Example 7, 2-Amino-4-allylamino-7-methyl-pyrazolo[1,5-a]s.triazine]	-180 mg	200%	71%	5 mg/kg	1200 mg/kg	Number of dead animals ([2]; Series 4 (controls 14/20)): 2/20; responders at 100 mg/kg [2, 12]: 90%; Number of dead animals at the dosage indicated, i.v. [6]: no
Cc1cc2nc(N)nc(N)n2n1 [Example 2, 2,4-Diamino-7-methyl-pyrazolo[1,5-a]s.triazine]	-100 mg	111%	56%	15 to 20 mg/kg	900 mg/kg	Number of dead animals ([2]; Series 2 (controls 10/20)): 2/21; responders at 100 mg/kg [2, 13]: 90.5%; alteration of the biological constants / histological injury of the various organs [4]: neither alteration of the biological constants nor histological injury of the various organs; alteration of the biological constants / histological injury of the various organs [10]: neither alteration of the biological constants nor histological injury of the various organs; tolerance in humans [5]: good tolerance; LD50 ([7]; iv): 380 mg/kg
Cc1cc2nc(N)nc(NC(C)C)n2n1 [Example 6, 2-amino-4-isopropylamino-7-methyl-pyrazolo[1,5-a]s.triazine methane sulfonate]	-200 mg	220%	–	5 mg/kg	–	Number of dead animals ([2]; Series 3 (controls 15/20)): 12/20; responders at 100 mg/kg [2, 11]: 40%; Number of dead animals at the dosage indicated, p.o. [6]: one
